Reference: ChEMBL document CHEMBL1158540, “Heterocyclic cycloalkanol ethylamines as norepinephrine reuptake inhibitors” (Bioorg Med Chem Lett, 2010)

Tests used:
[1] = target: T1, Sodium-dependent noradrenaline transporter (Homo sapiens, UniProt P23975); experiment: Inhibition of human NET transfected in MDCK-Net6 cells at 1 uM; format: cell-based
[2] = target: T2, Sodium-dependent dopamine transporter (Homo sapiens, UniProt Q01959); experiment: biochemical
Description: Displacement of [3H]WIN-35428 form human DAT expressed in CHO cell membranes

[3] = target: T1, Sodium-dependent noradrenaline transporter
Rattus norvegicus [4] = experiment: Effect on temperature homeostasis in telemetric ovariectomy-induced thermoregulatory dysfunction rat model assessed as mean reduction of tail skin temperature from baseline at 30 mg/kg, ip after 6 hrs; format: functional; conditions: route intraperitoneal
Rattus norvegicus [5] = experiment: Effect on temperature homeostasis in telemetric ovariectomy-induced thermoregulatory dysfunction rat model assessed as maximum reduction of tail skin temperature from baseline at 30 mg/kg, ip fter 6 hrs; format: functional; conditions: route intraperitoneal
[6] = target: T3, Sodium-dependent serotonin transporter (Homo sapiens, UniProt P31645); experiment: Inhibition of human SERT expressed in human JAR cells at 1 uM; format: cell-based
Target sequence in this assay (P31645 whole entry, looked up): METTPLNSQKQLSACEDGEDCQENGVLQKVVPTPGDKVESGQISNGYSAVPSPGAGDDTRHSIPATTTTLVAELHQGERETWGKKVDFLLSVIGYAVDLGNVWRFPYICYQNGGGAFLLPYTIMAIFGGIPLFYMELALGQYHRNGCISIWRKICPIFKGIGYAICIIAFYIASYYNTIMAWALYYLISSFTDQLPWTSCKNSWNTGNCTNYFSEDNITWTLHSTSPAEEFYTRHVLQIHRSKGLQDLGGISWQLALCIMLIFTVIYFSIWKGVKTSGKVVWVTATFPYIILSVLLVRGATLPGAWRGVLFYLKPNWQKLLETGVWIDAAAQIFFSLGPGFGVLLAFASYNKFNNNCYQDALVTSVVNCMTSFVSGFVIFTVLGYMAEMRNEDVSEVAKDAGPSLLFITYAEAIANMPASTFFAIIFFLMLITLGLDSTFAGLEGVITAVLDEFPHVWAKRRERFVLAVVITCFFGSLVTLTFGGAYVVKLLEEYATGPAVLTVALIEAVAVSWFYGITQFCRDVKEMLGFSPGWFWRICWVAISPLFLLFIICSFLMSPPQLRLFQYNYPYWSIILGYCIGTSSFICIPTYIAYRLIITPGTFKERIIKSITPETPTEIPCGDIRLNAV

[7] = target: T2, Sodium-dependent dopamine transporter; experiment: Inhibition of [3H]WIN-35428 binding to human DAT expressed in CHO membranes at 1000 nM; format: cell membranes
Rattus norvegicus [8] = experiment: Effect on temperature homeostasis in telemetric ovariectomy-induced thermoregulatory dysfunction rat model assessed as mean reduction of tail skin temperature from baseline at 30 mg/kg, po after 3 hrs; format: functional
Rattus norvegicus [9] = experiment: Effect on temperature homeostasis in telemetric ovariectomy-induced thermoregulatory dysfunction rat model assessed as mean reduction of tail skin temperature from baseline at 30 mg/kg, sc after 6.5 hrs; format: functional; conditions: route subcutaneous
[10] = Half life in rat microsomes; format: ADME, Microsome
Rattus norvegicus [11] = experiment: Effect on temperature homeostasis in telemetric ovariectomy-induced thermoregulatory dysfunction rat model assessed as maximum reduction of tail skin temperature from baseline at 30 mg/kg, sc fter 6.5 hrs; format: functional; conditions: route subcutaneous
Rattus norvegicus [12] = experiment: Effect on temperature homeostasis in telemetric ovariectomy-induced thermoregulatory dysfunction rat model assessed as maximum reduction of tail skin temperature from baseline at 30 mg/kg, po after 3 hrs; format: functional
[13] = target: T3, Sodium-dependent serotonin transporter; format: cell-based, JAR
Target sequence in this assay (P31645 whole entry): as the sequence (P31645 whole entry, looked up) above

Rattus norvegicus [14] = experiment: Effect on temperature homeostasis in telemetric ovariectomy-induced thermoregulatory dysfunction rat model assessed as maximum reduction of tail skin temperature from baseline at 30 mg/kg, ip fter 5.5 hrs; format: functional; conditions: route intraperitoneal
Rattus norvegicus [15] = experiment: Effect on temperature homeostasis in telemetric ovariectomy-induced thermoregulatory dysfunction rat model assessed as mean reduction of tail skin temperature from baseline at 30 mg/kg, ip after 5.5 hrs; format: functional; conditions: route intraperitoneal

T1 sequence (P23975 whole entry): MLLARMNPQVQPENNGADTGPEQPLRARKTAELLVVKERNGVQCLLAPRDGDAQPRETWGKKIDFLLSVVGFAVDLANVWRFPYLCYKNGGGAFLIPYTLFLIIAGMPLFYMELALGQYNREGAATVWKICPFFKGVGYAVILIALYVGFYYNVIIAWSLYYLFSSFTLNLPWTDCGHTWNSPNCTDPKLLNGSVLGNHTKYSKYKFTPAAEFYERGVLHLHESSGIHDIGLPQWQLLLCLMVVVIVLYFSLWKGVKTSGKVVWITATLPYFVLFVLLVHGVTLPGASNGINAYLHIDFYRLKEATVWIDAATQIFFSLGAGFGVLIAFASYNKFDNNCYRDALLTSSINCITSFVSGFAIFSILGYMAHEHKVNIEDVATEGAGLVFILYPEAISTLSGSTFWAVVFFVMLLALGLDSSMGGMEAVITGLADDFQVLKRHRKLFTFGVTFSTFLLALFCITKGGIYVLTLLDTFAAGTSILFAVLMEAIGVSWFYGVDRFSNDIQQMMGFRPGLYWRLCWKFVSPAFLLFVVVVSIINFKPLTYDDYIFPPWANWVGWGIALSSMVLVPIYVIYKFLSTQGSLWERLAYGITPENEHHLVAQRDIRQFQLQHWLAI
T2 sequence (Q01959 whole entry): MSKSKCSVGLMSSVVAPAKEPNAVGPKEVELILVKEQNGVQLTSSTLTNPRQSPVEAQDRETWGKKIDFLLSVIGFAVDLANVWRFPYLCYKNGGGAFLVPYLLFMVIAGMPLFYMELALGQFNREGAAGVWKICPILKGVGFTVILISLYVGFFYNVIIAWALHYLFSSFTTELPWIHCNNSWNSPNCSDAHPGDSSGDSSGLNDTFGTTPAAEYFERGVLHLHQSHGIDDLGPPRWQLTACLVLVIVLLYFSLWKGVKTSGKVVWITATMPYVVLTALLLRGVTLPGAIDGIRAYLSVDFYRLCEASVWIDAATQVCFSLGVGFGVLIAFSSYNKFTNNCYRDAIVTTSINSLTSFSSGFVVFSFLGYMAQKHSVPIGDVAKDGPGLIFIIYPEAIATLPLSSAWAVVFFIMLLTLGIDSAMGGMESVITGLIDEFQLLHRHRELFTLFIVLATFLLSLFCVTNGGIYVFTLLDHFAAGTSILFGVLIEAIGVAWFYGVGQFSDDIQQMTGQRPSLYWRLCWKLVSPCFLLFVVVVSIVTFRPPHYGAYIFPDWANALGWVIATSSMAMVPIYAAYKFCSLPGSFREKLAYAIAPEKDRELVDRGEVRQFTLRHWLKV

CN1CCN(CC(c2csc(Cl)c2)C2(O)CCCCC2)CC1 (stereo not given)
INH [1]: 88 µM
IC50 [2]: 389 nM
IC50 [3]: 95 nM
Activity (Rattus norvegicus [4]): -2.75 °C
Activity (Rattus norvegicus [5]): -4.2 °C

CN1CCN(C[C@@H](c2cccc(Cl)c2)C2(N)CCCCC2)CC1
IC50 [2]: 30 nM
INH [6]: 32 µM
IC50 [3]: 576 nM

OC1(C(CN2CCNCC2)c2ccsc2Cl)CCCCC1 (stereo not given)
INH [1]: 55 µM
INH [6]: 34 µM
IC50 [3]: 720 nM

OC1(C(CN2CCNCC2)c2c[nH]c3ccccc23)CCCCC1 (stereo not given)
INH [1]: 21 µM
INH [6]: 90 µM

OC1(C(CN2CCNCC2)c2cccs2)CCCCC1 (stereo not given)
INH [1]: 54 µM

OC1(C(CN2CCNCC2)c2csc3ccccc23)CCCCC1 (stereo not given)
INH [1]: 82 µM
INH [6]: 48 µM
IC50 [3]: 255 nM
inhibition [7]: 51%

OC1(C(CN2CCNCC2)c2csc(Cl)c2)CCCCC1 (stereo not given)
INH [1]: 86 µM
IC50 [3]: 100 nM
inhibition [7]: 43%

CN1CCN(CC(c2cccc(Cl)c2)C2(O)CCCCC2)CC1 (stereo not given)
Activity (Rattus norvegicus [8]): -3.1 °C
Activity (Rattus norvegicus [9]): -2.6 °C
IC50 [2]: 247 nM
IC50 [3]: 56 nM
half-life [10]: < 1 min
Activity (Rattus norvegicus [11]): -3.5 °C
Activity (Rattus norvegicus [12]): -3.8 °C
IC50 [13]: > 2000 nM

OC1(C(CN2CCNCC2)c2cc(Cl)sc2Cl)CCCCC1 (stereo not given)
INH [1]: 94 µM
INH [6]: 12.2 µM
IC50 [3]: 225 nM

CN1CCN(C[C@H](c2cccc(Cl)c2)C2(O)CCCCC2)CC1
INH [1]: 92 µM
IC50 [2]: 175 nM
IC50 [3]: 30 nM

CN1CCN(C[C@H](c2csc(Cl)c2)C2(O)CCCCC2)CC1
INH [1]: 91 µM
IC50 [2]: 212 nM
IC50 [3]: 57 nM
Activity (Rattus norvegicus [14]): -4.6 °C
Activity (Rattus norvegicus [15]): -3.3 °C

OC1(C(CN2CCNCC2)c2ccc(Cl)s2)CCCCC1 (stereo not given)
INH [1]: 50.8 µM

OC1(C(CN2CCNCC2)c2cc3ccccc3s2)CCCCC1 (stereo not given)
INH [1]: 73 µM
INH [6]: 89 µM
IC50 [3]: 550 nM
inhibition [7]: 61%

Cn1cc(C(CN2CCNCC2)C2(O)CCCCC2)c2ccccc21 (stereo not given)
INH [1]: 32 µM

OC1(C(CN2CCNCC2)c2cnc3ccccc3c2)CCCCC1 (stereo not given)
INH [1]: 19 µM

CN1CCN(C[C@@H](c2csc(Cl)c2)C2(O)CCCCC2)CC1
INH [1]: 0 µM
IC50 [2]: > 6000 nM
IC50 [3]: 18000 nM
